The values below are quoted from earlier work in patent publication US12649907B2, “Alternate detergents for viral inactivation” (AMGEN INC., priority 2019, dated 2026).

For the series the following is noted: as indicated by the Hampton Kit; cited from earlier work.
Consider `CCCCCCCCCCCCCOC1OC(CO)C(OC2OC(CO)C(O)C(O)C2O)C(O)C1O` [n-Tridecyl-β-D-maltoside], for which the CMC is 0.033 mM.

For the compound `CCCCCCCCCCCC[N+](C)(C)CCCC(=O)[O-]` [DDMAB], the CMC was 4.3 mM.

Consider `CCCCCCCCCCCC(=O)OC[C@@H](O)COP(=O)([O-])OCC[N+](C)(C)C` [LysoFos ™ Choline 12], for which the CMC was 0.7 mM.

For `CCCCCCCCS[C@@H]1O[C@H](CO)[C@@H](O)[C@H](O)[C@H]1O` [n-Octyl-β-D-Thioglucoside], the CMC is reported as 9 mM.

As for `OC[C@H]1O[C@H](O[C@H]2[C@H](O)[C@@H](O)[C@H](OCCCCCCC3CCCCC3)O[C@@H]2CO)[C@H](O)[C@@H](O)[C@@H]1O` [CYMAL ®-6, 6-cyclohexyl-1-hexyl-β-D-maltoside], the CMC is 0.56 mM.

`CC(C)CC(CC(C)C)O[C@@H]1O[C@H](CO)[C@@H](O[C@H]2O[C@H](CO)[C@@H](O)[C@H](O)[C@H]2O)[C@H](O)[C@H]1O` [2,6-Dimethyl-4-heptyl-b-D-malto-pyranoside]: the CMC is 27.5 mM.

As for `OC[C@H]1O[C@H](O[C@H]2[C@H](O)[C@@H](O)[C@H](OCCCC3CCCCC3)O[C@@H]2CO)[C@H](O)[C@@H](O)[C@@H]1O` [CYMAL ®-3, 3-Cyclohexyl-1-Propyl-β-D-Maltoside], the CMC is on record as 34.5 mM.

For the compound `OC[C@H]1O[C@H](O[C@H]2[C@H](O)[C@@H](O)[C@H](OCCCCCCCC3CCCCC3)O[C@@H]2CO)[C@H](O)[C@@H](O)[C@@H]1O` [CYMAL ®-7, 7-cyclohexyl-l-heptyl-β-D-maltoside], the CMC is recorded as 0.19 mM.

On to `CCCCCCCC[N+](C)(C)CCCS(=O)(=O)[O-]` [ZWITTERGENT ® 3-08], for which the CMC is 330 mM.

On to `C[C@H](CCC(=O)NCCC[N+](C)(C)CC(O)CS(=O)(=O)[O-])[C@H]1CC[C@H]2[C@@H]3[C@H](O)C[C@@H]4C[C@H](O)CC[C@]4(C)[C@H]3C[C@H](O)[C@]12C` (some centres unmarked) [CHAPSO], for which the CMC is 8 mM.

With `O=C(CCC1CCCCC1)N(CCO)C[C@H](O)[C@@H](O)[C@H](O)[C@H](O)CO` [C-HEGA ®-9], the CMC is on record as 108 mM.

Take Sucrose monolaurate: the CMC is on record as 0.3 mM.

Regarding `CCCCCCCCS[C@@H]1O[C@H](CO)[C@@H](O[C@H]2O[C@H](CO)[C@@H](O)[C@H](O)[C@H]2O)[C@H](O)[C@H]1O` [n-Octyl-β-D-Thiomaltopyranoside], the CMC is given as 8.8 mM.

In the case of `CCCCCCCCCCO[C@@H]1O[C@H](CO)[C@@H](O[C@H]2O[C@H](CO)[C@@H](O)[C@H](O)[C@H]2O)[C@H](O)[C@H]1O` [n-Decyl-b-D-maltoside], the CMC is 1.8 mM.

Turning to `CCCCCCCCCC(=O)N(CCO)C[C@H](O)[C@@H](O)[C@H](O)[C@H](O)CO` [HEGA ®-10], the CMC is recorded as 7 mM.

`CCCCCCCC(=O)N(CCO)C[C@H](O)[C@@H](O)[C@H](O)[C@H](O)CO` [HEGA ®-8]: the CMC is reported as 109 mM.

Regarding `C[C@H](CCC(=O)NCCC[N+](C)(C)CCCS(=O)(=O)[O-])[C@H]1CC[C@H]2[C@@H]3[C@H](O)C[C@@H]4C[C@H](O)CC[C@]4(C)[C@H]3C[C@H](O)[C@]12C` [CHAPS], the CMC is listed as 8 mM.

With `CCCCCCCCCO[C@@H]1O[C@H](CO)[C@@H](O)[C@H](O)[C@H]1O` [n-Nonyl-b-D-glucoside], the CMC is listed as 6.5 mM.

Take `CCCCCCCCCS[C@@H]1O[C@H](CO)[C@@H](O[C@H]2O[C@H](CO)[C@@H](O)[C@H](O)[C@H]2O)[C@H](O)[C@H]1O` [n-Nonyl-b-D-thiomaltoside]: the CMC is 3.2 mM.

With `CCCCCCCCO[C@@H]1O[C@H](CO)[C@@H](O)[C@H](O)[C@H]1O` [n-Octyl-b-D-glucoside], the CMC is listed as 20 mM.

Turning to `O=C(CCCCC1CCCCC1)N(CCO)CC(O)C(O)C(O)C(O)CO` (centres unmarked) [C-HEGA ®-11], the CMC is 11.5 mM.

With `CCCCCCCCC(=O)N(CCO)C[C@H](O)[C@@H](O)[C@H](O)[C@H](O)CO` [HEGA ®-9], the CMC is 39 mM.

As for `CCCCCCCCCC(=O)N(C)C[C@H](O)[C@@H](O)[C@H](O)[C@H](O)CO` [MEGA-10], the CMC is 7 mM.
